According to patent US20170252350A1, “SMALL MOLECULE IRE1-ALPHA INHIBITORS” (Cornell University, priority 2016, published 2017):
Where “and” joins values, the source holds several entries; their conditions need not be identical. Equal entries are not always repeated.

Experiments:
IRE1α = molecular target: T1, IRE1α (Homo sapiens, UniProt O75460); experiment: In vitro FRET assay of IRE1α endoribonuclease activity (XBP1 RNA hairpin probe); type: biochemical; settings: SignalChem IRE1α protein 2 nM, fluorescence read over 30 minutes
T1 construct: purchased SignalChem
T1 sequence (O75460 19-977): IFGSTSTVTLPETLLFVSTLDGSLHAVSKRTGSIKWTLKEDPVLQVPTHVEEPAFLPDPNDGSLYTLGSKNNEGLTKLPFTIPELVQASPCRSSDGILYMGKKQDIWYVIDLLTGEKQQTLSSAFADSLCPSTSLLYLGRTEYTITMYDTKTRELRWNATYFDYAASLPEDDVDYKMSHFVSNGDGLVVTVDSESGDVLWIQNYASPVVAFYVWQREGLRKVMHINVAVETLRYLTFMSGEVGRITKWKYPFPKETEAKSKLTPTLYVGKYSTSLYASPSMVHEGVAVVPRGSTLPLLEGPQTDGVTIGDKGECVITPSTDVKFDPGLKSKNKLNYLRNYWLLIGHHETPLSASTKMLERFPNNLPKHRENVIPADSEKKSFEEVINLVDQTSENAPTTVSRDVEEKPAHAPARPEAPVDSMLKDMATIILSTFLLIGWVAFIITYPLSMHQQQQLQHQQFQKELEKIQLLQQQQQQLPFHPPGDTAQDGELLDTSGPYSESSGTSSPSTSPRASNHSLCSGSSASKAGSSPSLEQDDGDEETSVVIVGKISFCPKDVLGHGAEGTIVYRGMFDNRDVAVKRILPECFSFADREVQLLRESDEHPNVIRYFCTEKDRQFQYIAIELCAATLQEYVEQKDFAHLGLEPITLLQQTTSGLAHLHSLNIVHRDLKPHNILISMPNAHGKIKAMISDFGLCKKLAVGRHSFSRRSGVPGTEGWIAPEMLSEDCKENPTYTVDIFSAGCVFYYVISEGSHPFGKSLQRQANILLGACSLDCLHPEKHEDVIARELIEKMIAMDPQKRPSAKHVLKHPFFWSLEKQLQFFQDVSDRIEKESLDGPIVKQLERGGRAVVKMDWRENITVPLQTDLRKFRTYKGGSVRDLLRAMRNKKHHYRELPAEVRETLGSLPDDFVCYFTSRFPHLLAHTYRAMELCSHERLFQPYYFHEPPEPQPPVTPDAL
Text: To evaluate potential small molecule IRE1 inhibitors, a Förster resonance energy transfer (FRET)-based small molecule IRE1 screening system was used. In brief, a small XBP1-mimetic RNA hairpin containing sequence features required for IRE1α-mediated splicing has been synthesized with the fluorophore 6FAM attached to the 5′ end and the quenching dye Black Hole Quencher 1 (BHQ1) attached to the 3′ end. When the hairpin is intact, 6FAM fluorescence is completely absorbed by BHQ1; however, IRE1α-mediated cleavage of the RNA hairpin leads to an increase in the fluorescence signal. The inventors also incorporated a point mutant version of this same RNA hairpin that is resistant to IRE1α-mediated cleavage to control for non-specific RNAse contamination (FIG. 2).
To perform the in vitro FRET assay, 1× complete assay buffer (CAB; […], 50 mM sodium citrate pH 7.15, 1 mM magnesium acetate, 0.02% tween 20) was used to dilute SignalChem IRE1α protein to a final concentration of 2 nM. Selected compounds were serially diluted with DMSO in a non-binding black 384-well plate for a total of 15 μl in each well. 2 μl of the serially diluted compound or DMSO control were then added to new wells containing 98 μl of 1×CAB, for a total volume of 100 μl, 10 μl of which were then transferred to wells of a new plate. 5 μof the diluted IRE1α was then added to each well. 5 μl of a […] XBP1 RNA probe was then added to each well. Fluorescence was then read over 30 minutes in kinetic mode (485/515 nm).
Two RNA probes were used, XBP1 wildtype (CAUGUCCGCAGCACAUG; SEQ ID NO: 1) which is able to be spliced by active IRE1α or XBP1 mutant (CAUGUCCCCAGCACAUG; SEQ ID NO: 2) which is unable to be spliced. Each probe contained a 5′ 6-FAM modification and a 3′ IOWA Black FQ modification, […]

myeloid dendritic cells = experiment: Lipid accumulation (BODIPY 493/503) in myeloid dendritic cells exposed to ovarian cancer ascites supernatants; type: cell-based, mouse
Text: FIG. 1D is flow cytometry analysis of lipid accumulation in mouse bone marrow-derived dendritic cells exposed to the indicated treatments, measured by BODIPY 493/503 staining intensity. Both raw data and quantified geometric mean fluorescence intensity (MFI) are shown.

For `CN1CCN(Cc2ccc(NC(=O)Nc3cc(C#Cc4cccnc4)n(C)n3)cc2C(F)(F)F)CC1` [Compound A1], the EC50 (IRE1α) was ≤ 5 µM.

For `CN1CCN(Cc2ccc(NC(=O)Nc3cc(C#Cc4ccc(N)nc4)n(C)n3)cc2C(F)(F)F)CC1` [Compound A2], the EC50 (IRE1α) was ≤ 5 µM.

With `CN1CCN(Cc2ccc(NC(=O)Nc3cc(C#Cc4cnc5cccnn45)n(C)n3)cc2C(F)(F)F)CC1` [Compound A3] the EC50 (IRE1α) was ≤ 5 µM.

With `CN1CCN(Cc2ccc(NC(=O)Nc3cc(C#Cc4cnc5ccccn45)n(C)n3)cc2C(F)(F)F)CC1` [Compound A4] the EC50 (IRE1α) was ≤ 5 µM.

`CN1CCN(Cc2ccc(NC(=O)Nc3cc(C#Cc4cnc5cnccn45)n(C)n3)cc2C(F)(F)F)CC1` [Compound A5] was tested, and the EC50 (IRE1α) was ≤ 5 µM.

In the case of `CN1CCN(Cc2ccc(NC(=O)Nc3cc(C#Cc4cncc5nccn45)n(C)n3)cc2C(F)(F)F)CC1` [Compound A6], the EC50 (IRE1α) is reported as ≤ 5 µM.

Compound `CN1CCN(Cc2ccc(NC(=O)Nc3cc(C#Cc4ccnc(N)c4)n(C)n3)cc2C(F)(F)F)CC1` [Compound A7] has an EC50 (IRE1α) of 5 to 50 µM.

For `COc1cc(C#Cc2cc(NC(=O)Nc3ccc(CN4CCN(C)CC4)c(C(F)(F)F)c3)nn2C)ccn1` [Compound A8], the EC50 (IRE1α) was ≤ 5 µM and 5 to 50 µM.

In the case of `CN1CCN(Cc2ccc(NC(=O)Nc3cc(C#Cc4cnc(N)cn4)n(C)n3)cc2C(F)(F)F)CC1` [Compound A9], the EC50 (IRE1α) is reported as ≤ 5 µM.

With `CN1CCN(Cc2ccc(NC(=O)Nc3cc(C#Cc4ccncc4)n(C)n3)cc2C(F)(F)F)CC1` [Compound A10] the EC50 (IRE1α) was ≤ 5 µM.

With `CN1CCN(Cc2ccc(NC(=O)Nc3cc(C#Cc4cc(N)[nH]n4)n(C)n3)cc2C(F)(F)F)CC1` [Compound A11] the EC50 (IRE1α) was ≤ 5 µM.

With `CN1CCN(Cc2ccc(NC(=O)Nc3cc(C#Cc4cn[nH]c4)n(C)n3)cc2C(F)(F)F)CC1` [Compound A12] the EC50 (IRE1α) was ≤ 5 µM.

`CN1CCN(Cc2ccc(NC(=O)Nc3cc(C#Cc4cncn4C)n(C)n3)cc2C(F)(F)F)CC1` [Compound A13] was tested, and the EC50 (IRE1α) was ≤ 5 µM.

With `CN1CCN(Cc2ccc(NC(=O)Nc3cc(C#Cc4n[nH]c5cccnc45)n(C)n3)cc2C(F)(F)F)CC1` [Compound A14] the EC50 (IRE1α) was ≤ 5 µM.

In the case of `CN1CCN(Cc2ccc(NC(=O)Nc3cc(C#Cc4cc[nH]c(=O)c4)n(C)n3)cc2C(F)(F)F)CC1` [Compound A15], the EC50 (IRE1α) is reported as 5 to 50 µM.

`CN1CCN(Cc2ccc(NC(=O)Nc3cc(C#Cc4ccccn4)n(C)n3)cc2C(F)(F)F)CC1` [Compound A16] was tested, and the EC50 (IRE1α) was ≤ 5 µM.

For `CN1CCN(Cc2ccc(NC(=O)Nc3cc(C#Cc4ccc(C#N)nc4)n(C)n3)cc2C(F)(F)F)CC1` [Compound A17], the EC50 (IRE1α) was ≤ 5 µM.

`CN1CCN(Cc2ccc(NC(=O)Nc3cc(C#Cc4ccc(N)cc4)n(C)n3)cc2C(F)(F)F)CC1` [Compound A18] gave an EC50 (IRE1α) of 50 to 100 µM.

`CN1CCN(Cc2ccc(NC(=O)Nc3cc(C#Cc4cnccn4)n(C)n3)cc2C(F)(F)F)CC1` [Compound A19] was tested, and the EC50 (IRE1α) was ≤ 5 µM.

`Cn1nc(NC(=O)Nc2cccc(C(F)(F)F)c2)cc1C#Cc1ccc(N)nc1` [Compound A20] was tested, and the EC50 (IRE1α) was ≤ 5 µM.

In the case of `CN1CCN(Cc2ccc(NC(=O)Nc3cc(C#Cc4cncc(N)c4)n(C)n3)cc2C(F)(F)F)CC1` [Compound A21], the EC50 (IRE1α) is reported as ≤ 5 µM.

`Cn1nc(NC(=O)Nc2ccc(CN3CCN(CCO)CC3)c(C(F)(F)F)c2)cc1C#Cc1ccc(N)nc1` [Compound A22] was tested, and the EC50 (IRE1α) was ≤ 5 µM.

For `CN1CCN(Cc2ccc(NC(=O)Nc3nnc(C#Cc4ccc(N)nc4)s3)cc2C(F)(F)F)CC1` [Compound A23], the EC50 (IRE1α) was ≤ 5 µM.

In the case of `Cn1nc(NC(=O)Nc2ccc(CN3CCCCC3)c(C(F)(F)F)c2)cc1C#Cc1ccc(N)nc1` [Compound A24], the EC50 (IRE1α) is reported as 5 to 50 µM.

Compound `Cn1nc(NC(=O)Nc2ccc(CN3CCOCC3)c(C(F)(F)F)c2)cc1C#Cc1ccc(N)nc1` [Compound A25] has an EC50 (IRE1α) of 5 to 50 µM.

For vitamin E, the intracellular lipid accumulation (myeloid dendritic cells) was “suppressed”.
